{"source": "patent US20040109845A1", "about": "“Method for inhibiting articular cartilage matrix calcification” (priority 2001, published 2004)", "key": {"[1]": {"test_system": "TGase activity (tTGase and Factor XIIIa) in meniscal cells", "assay": "TGase activity in cultured knee meniscal cells (BP incorporation into N,N-dimethylcasein)", "assay_type": "cell-based, human", "settings": "monolayer culture, 48-72 hrs; IL-1β, TGFβ, TNFα 10 ng/ml; Noc-12 2.5-25 μM; Sin-1 1-10 μM", "protocol": "Meniscal cells were maintained in DMEM high glucose and supplemented with 10% FCS, 1% L-glutamine, 100 units/ml Penicillin and 50 μg/ml Streptomycin (Omega Scientific, Tarzana, Calif.) and cultured at 37° C. with 5% CO2. In monolayer cell culture studies involving stimulation by TGFE[…] or IL-1, the cells were placed in DMEM high glucose containing 1% FCS, 1% L-glutamine, 100 units/ml Penicillin and 50 μg/ml Streptomycin. In all other studies, the cells were cultured in complete medium (as described above). Only primary or first passage meniscal cells were studied.\n(§1) TGase activity was measured by modifications to a previously described method (35). Specifically, we coated 96 well ImmunoModule plates (Nunc, Rochester, N.Y.) with 200 μl of 20 mg/ml N,N-dimethylcasein for 1 hr at 23° C. The N,N-dimethylcasein was removed and nonspecific protein binding was blocked by adding 3% BSA in 100 mM Tris, pH 8.5, 150 mM NaCl, 0.05% Tween-20 (TBST) to each well for an additional 1 hr at 23° C. Then, aliquots of 5 μg of total cellular protein from meniscal or TC28 cells that had been lysed and sonicated (in 5 mM Tris HCl, 0.25 M sucrose, 0.2 mM MgSO4, 2 mM DTT, 0.4 mM PMSF, 0.4% Triton X100, pH 7.5), were added to the plate in triplicate. To measure TGase in extracts of whole menisci, 50 mg dry weight of tissue from the central zone of each medial meniscus was used as the source (after solubilization and sonication) for aliquots of 5 μg of soluble protein. Fifty μl of solution A (100 mM Tris, pH 8.5 and 20 mM CaCl2) was added to all samples for TGase assay, followed by the addition of 50 μl of solution B (100 mM Tris, pH 8.5, 40 mM DTT and freshly added 2 mM 5-(Biotinamido) pentylamine (BP)). The plates were incubated for 1 hr at 37° C. The wells were washed once with TBST containing 1 mM EDTA and then three times with TBST. One hundred μl of a 1:500 dilution of streptavidin-AP in 3% BSA/TBST was added to each well for 1 hr at 23° C. The wells were washed twice with TBST, and 200 μl of solution C (100 mM Tris, pH 9.8, mM NaCl, 5 mM MgCl2, 1 mg/ml of freshly added p-nitrophenylphosphate) was added to each well. Readings at OD410 were taken over 15 minutes. Purified guinea pig liver TGase (Sigma) was used to prepare a standard curve. TGase activity was designated as the amount of BP incorporated into casein (per μg cellular DNA, determined chromogenically following precipitation in perchlorate (28), or, where indicated, per μg protein, determined as previously described (28)).\nTo directly induce expression of each TGase in meniscal cells, 5×10^5 primary cells were plated in 60 mm dishes and allowed to adhere overnight. We modified (28) the manufacturer's protocol for the Lipofectamine Plus kit (Life Technologies, Grand Island, N.Y.). To optimize the transfection of meniscal cells, we added 2.0 ml of serum-free DMEM/F12 containing 0.00015% digitonin to washed cells and incubated for 3 min at 23° C. Then, media was removed, and cells transfected at 37° C. for 7 hrs, followed by removal of the media and addition of complete DMEM high glucose medium. Transfection of each TGase into TC28 cells was done by the same procedure, with the exception that the digitonin permeabilization step was omitted."}, "[2]": {"test_system": "TGase activity in knee meniscal cells and TC28 cells", "assay": "TGase activity in nonadherent nodule-forming culture on polyHEME", "assay_type": "cell-based, human", "settings": "polyHEME plates, β-glycerophosphate, ascorbate, dexamethasone, up to 10 days; cytokines 10 ng/ml or TGase transfection", "protocol": "FIG. 10 refers to effects of direct Factor XIIIa and tTGase expression on TGase activity in meniscal cells and TC28 cells. Human chondrocytic TC28 cells or normal knee meniscal cells (5×10^5), were plated in 60 mm dishes and allowed to adhere overnight, as described in the Methods. Two μg of plasmid DNAs or empty plasmid vector were then transfected, performed as described above. After 24 hrs, the cells were removed from the dishes and plated on polyHEME-coated tissue culture plates and media supplemented with 10 mM P-glycerophosphate, ascorbatte (50 μg/ml) and dexamethasone (10^−8 M), which stimulated the cells to form mineralizing nodules for 3-10 days in culture. For comparison purposes, cells were treated only with IL-1 or TGFβ (10 ng/ml each) for up to 10 days. At each time point designated, the cell nodules were collected and lysed, and TGase activity then determined as previously described. For meniscal cells, data pooled from 6 donors studied in triplicate. For TC28 cells, n=6 each, studied in triplicate. Statistics not indicated on this graph, but p<0.05 for the increases in TGase activities in response to both Factor XIIIa and tTGase transfection, and for IL-1 treatment, at all time points.\nas §1, with “One hundred μl of a 1:500 dilution of streptavidin-AP in 3% BSA/TBST was added to each well for 1 hr at 23° C. The wells were washed twice with TBST, and 200 μl of solution C (100 mM Tris, pH 9.8, mM NaCl, 5 mM MgCl2, 1 mg/ml of freshly added p-nitrophenylphosphate) was added to each well.” left out, “Purified guinea pig liver TGase (Sigma) was used to prepare a standard curve.” left out, “(28)). […]” for “(28)).”"}, "[3]": {"test_system": "meniscal cells and TC28 cells", "assay": "Matrix calcification, quantitative Alizarin Red S binding assay", "assay_type": "cell-based, human", "settings": "polyHEME culture up to 10 days; cytokines 10 ng/ml or TGase transfection", "protocol": "TC28 cells and meniscal cells were transfected with empty plasmid or a TGase expression construct, and then transferred to polyHEME and cultured for up to 10 days, as described above. For comparison purposes, control untransfected cells were treated with IL-1 or TGFβ(10 ng/ml each) for up to 10 days. To measure matrix calcification, media and cells were removed from the PolyHEME-coated dishes, and 1 ml Alizarin Red S solution (0.5% v/v Alizarin Red S, pH 5.0) added to washed plates at 23° C. for 10 min. After further washing, 100 mM Cetylpyridium Chloride was added for 10 min to release the remaining calcium-bound Alizarin Red S. The solution was collected and read at OD570, with 1.0 OD570=1 unit of Alizarin Red released per μg of DNA per culture dish. n=6 each, studied in triplicate, and using 6 different knee meniscal donors. *p<0.05.\nTo promote matrix calcification in short-term cultures, we modified a nonadherent chondrocyte culture system (37), and assessed cells that formed calcifying nodules over 10 days in culture. In brief, meniscal and TC28 cells, at 24 hours after the transfection, were washed and removed from the dish using 0.2 mg/ml EDTA, pH 8.0, then transferred to 6 well plates that had been previously coated with a 10% (wt./v) in 95% ethanol solution of Poly (2-Hydroxyethyl methacrylate) (polyHEME). […]\nTo assay calcification of the pericellular matrix of meniscal cells and TC28 cells, we used a quantitative Alizarin Red S binding assay (38). […] The solution was collected and read at OD570 on a SpectraMAX microplate reader (Molecular Devices, Sunnyvale, Calif.), with 1 OD570=1 unit of Alizarin Red released per μg of DNA per culture dish. We extracted matrix crystals from plates under each condition using a papain-hypochlorite method (39), and the crystals were embedded in Spurr epoxy resin, sectioned, and viewed on a Philips EM340 transmission electron micrograph and analyzed by electron diffraction (40,41)."}, "[4]": {"test_system": "tTGase and Factor XIIIa expression in knee articular cartilage and medial meniscus", "assay": "Immunohistochemistry of cartilage organ culture", "assay_type": "cell-based, human", "settings": "organ culture 48 hours", "protocol": "Articular cartilage and medial menisci from normal donors were studied in cartilage organ culture in media supplemented with 1% FCS and 1% L-glutamine, as described in the Methods, following 48 hours of treatment with TGFβ 10 ng/ml, IL-1β (1 ng/ml), or medium alone.\nImmunohistochemistry was performed as previously described in detail (30,33,34). In brief, immunohistochemical sections (5 microns) were pretreated with bovine testicular hyaluronidase (0.5 mg/ml at 37° C. for 30 min) and incubated in 5% normal goat or rabbit serum for 20 min prior to avidin/biotin peroxidase staining by the ABC method. Hematoxilin was used as the counterstain. Biotinylated anti-rabbit or anti-goat antibodies served as secondary antibodies. Levamisole was added to block endogenous alkaline phosphatase (AP). Negative controls were nonimmune rabbit or goat serum as a substitute for primary antibody.\nMeniscal cells were taken from tissue slices removed from the central regions of the medial and lateral menisci. Where indicated, meniscal organ culture was performed by incubating these slices for b 48 hours in DMEM high glucose containing 1% FCS and 1% L-glutamine (and articular cartilage organ culture performed in the same manner, where indicated). Otherwise, we minced meniscal tissue with a scalpel, incubated in DMEM high glucose containing 2 mg/ml clostridial collagenase, 5% FCS, 1% L-glutamine, 100 units/ml Penicillin and 50 μg/ml Streptomycin (Omega Scientific, Tarzana, Calif.), and incubated on a gyratory shaker at 37° C. until the tissue fragments were digested. Residual multicellular aggregates were removed by sedimentation (1,000×g), and cells were washed three times in DMEM containing 5% FCS."}, "NTPPPH": {"test_system": "NTPPPH", "assay": "NTPPPH activity of cultured meniscal cells", "assay_type": "cell-based, human", "settings": "48 h, 10 ng/ml", "protocol": "(§2) Meniscal cells (from the same donors used in FIG. 3 above) were released from the matrix with collagenase digestion, and grown in monolayer culture for 72 hrs, then trypsinized and plated in 35 mm dishes (containing 3×10^5 cells) and allowed to adhere overnight. Cells were then treated for 48 h with 10 ng/ml of TGFβ or IL-1β (10 ng/ml) in 1% FCS-containing DMEM high glucose medium. The cells were collected and lysed for the TGase (FIG. 5A), NTPPPH (FIG. 5B), and AP (FIG. 5C) assays as described in the Methods. Five micrograms of soluble protein was studied in triplicate for each assay performed as previously described. Results were analyzed by linear regression, with results indicated.\n(§3) PPi was determined by differential adsorption on activated charcoal of UDP-D-[6-^3H] glucose (Amersham, Chicago, Ill.) from the reaction product 6-phospho [6-^3H] gluconate (28). Units of NTPPPH and AP were designated as micromoles of substrate hydrolyzed per hour (per μg DNA in each sample) (28). NO release by cultured meniscal cells was measured using the Greiss reaction (33). Concentrations or specific activities of PPi, NTPPPH, and AP were equalized for cellular DNA concentrations in each well."}, "[5]": {"test_system": "alkaline phosphatase (AP)", "assay": "AP activity of cultured meniscal cells", "assay_type": "cell-based, human", "settings": "48 h, 10 ng/ml", "protocol": "as §2, §3"}, "[6]": {"test_system": "S100A11 mRNA in human articular chondrocytes", "assay": "S100A11 mRNA expression by RT-PCR", "assay_type": "cell-based", "settings": "10 ng/ml, 24 hours, relative to L30", "protocol": "Normal human knee articular chondrocytes were treated in culture with IL-1 or IGF-I (10 ng/ml) for 24 hours and ascertained for S100A11 mRNA expression by RT-PCR, relative to the loading control L30, a ribosomal housekeeping gene. Results for induction of S100 A11 representative of 3 separate experiments with different donors."}}, "note": "Entries after “also recorded” stand apart in the source; their conditions may differ."}
{"compound": "TNFα", "values": [{"measurement": "Induction of TGase activity in cultured normal knee meniscal cells", "setting": "[1]", "result": "stimulated increased TGase activity; also recorded: induce TGase activity"}]}
{"compound": "tTGase: human 3.3 kb full length tTGase cDNA construct in pSG5, transfected into cells", "values": [{"measurement": "TGase activity under mineralizing nonadherent conditions", "setting": "[2]", "result": "markedly increased TGase activity"}, {"measurement": "Matrix calcification (bound Alizarin Red S)", "setting": "[3]", "result": "induced particularly marked increases in the amount of calcium precipitated in the matrix"}]}
{"compound": "TGFβ: Human recombinant TGF-β1 purchased from R&D Systems", "values": [{"measurement": "Induction of TGase activity in cultured normal knee meniscal cells", "setting": "[1]", "result": "did not induce TGase activity; also recorded: but not TGFβ"}, {"measurement": "tTGase and Factor XIIIa immunostaining", "setting": "[4]; knee articular cartilage and meniscal cartilage slices, TGFβ 10 ng/ml, IL-1β 1 ng/ml", "result": "induced increased tTGase and Factor XIIIa immunostaining"}, {"measurement": "tTGase expression", "setting": "[4]; knee articular cartilage", "result": "up-regulated tTGase expression"}, {"measurement": "NTPPPH activity", "setting": "NTPPPH", "result": "stimulated increased NTPPPH activity in association with aging"}, {"measurement": "AP activity", "setting": "[5]", "result": "did not significantly change"}, {"measurement": "TGase activity under mineralizing nonadherent conditions", "setting": "[2]", "result": "did not significantly augment activity of TGase"}]}
{"compound": "IGF-1: IGF-1, involved in the pathogenesis of osteoarthritis", "values": [{"measurement": "S100A11 mRNA expression", "setting": "[6]", "result": "induce mRNA expression of S100A11"}]}
{"compound": "CCNCCN(CC)N(O)N=O", "note": "[Noc-12, reference compound]", "values": [{"measurement": "Induction of TGase activity in cultured normal knee meniscal cells", "setting": "[1]", "result": "shared the ability of II-1 to induce TGase activity"}]}
{"compound": "Factor XIIIa: recombinant human Factor XIIIa cDNA in pUC18, transfected into meniscal and TC28 cells", "values": [{"measurement": "TGase activity under mineralizing nonadherent conditions", "setting": "[2]", "result": "markedly increased TGase activity"}, {"measurement": "Matrix calcification (bound Alizarin Red S)", "setting": "[3]", "result": "induced particularly marked increases in the amount of calcium precipitated in the matrix"}]}
{"compound": "[NH-]c1c[n+](N2CCOCC2)no1", "note": "[Sin-1, reference compound]", "values": [{"measurement": "Induction of TGase activity in cultured normal knee meniscal cells", "setting": "[1]", "result": "shared the ability of II-1 to induce TGase activity"}]}
